Assay results published in EP4800012A1, “COMPOUND ACTING AS PARP7 INHIBITOR” (Dovetree Medicines Unus, Inc., priority 2023, dated 2025).
Like-named read-outs stand apart in the source and are kept apart here.

How the values were obtained:
[1] = target: PARP1 (Homo sapiens, UniProt P09874); assay: PARP1 in vitro enzyme activity inhibition (chemiluminescence assay); format: biochemical; settings: 5 nM of PARP1 solution, method of test example 1; read-out: PARP1 activity inhibition IC50
Procedure: (§1) Following the method in test example 1, the IC50 value of the inhibition of each compound on PARP7 activity were detected and obtained. Reference was made to the method in test example 1, except that the 6.25 nM of PARP7 solution in the ribosylation reaction step was replaced with a 5 nM of PARP1 solution or a 5 nM of PARP2. Similar to the 6.25 nM of PARP7 solution, the 5 nM of PARP1 solution and 5 nM of PARP2 solution were also formulated and obtained by using 1× Assay buffer.

[2] = target: T1, PARP7 (Homo sapiens, UniProt Q7Z3E1); assay: PARP7 in vitro enzyme activity inhibition (chemiluminescence assay, selectivity test); format: biochemical; settings: 6.25 nM of PARP7 solution, method of test example 1; read-out: PARP7 activity inhibition IC50
T1 construct: purchased BPS 80527
T1 sequence (Q7Z3E1 1-657): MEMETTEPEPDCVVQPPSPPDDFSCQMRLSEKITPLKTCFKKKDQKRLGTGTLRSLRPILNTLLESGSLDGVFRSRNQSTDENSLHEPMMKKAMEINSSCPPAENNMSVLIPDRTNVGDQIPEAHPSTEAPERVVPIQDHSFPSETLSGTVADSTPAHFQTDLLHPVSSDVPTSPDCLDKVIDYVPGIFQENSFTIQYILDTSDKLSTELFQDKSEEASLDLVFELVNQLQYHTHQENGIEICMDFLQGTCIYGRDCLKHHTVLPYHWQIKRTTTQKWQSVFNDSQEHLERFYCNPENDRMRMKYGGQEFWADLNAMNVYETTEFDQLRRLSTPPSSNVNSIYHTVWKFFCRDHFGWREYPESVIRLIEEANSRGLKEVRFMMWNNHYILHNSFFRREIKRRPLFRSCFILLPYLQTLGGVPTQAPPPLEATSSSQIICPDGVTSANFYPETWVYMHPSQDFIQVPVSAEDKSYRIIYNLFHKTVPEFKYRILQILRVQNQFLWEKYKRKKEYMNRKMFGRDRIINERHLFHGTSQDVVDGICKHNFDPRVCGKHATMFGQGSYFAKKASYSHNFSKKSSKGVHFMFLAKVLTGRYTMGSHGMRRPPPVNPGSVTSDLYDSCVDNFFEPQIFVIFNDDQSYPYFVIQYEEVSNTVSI
Procedure: as §1

[3] = target: PARP2 (Homo sapiens, UniProt Q9UGN5); assay: PARP2 in vitro enzyme activity inhibition (chemiluminescence assay); format: biochemical; settings: 5 nM of PARP2, method of test example 1; read-out: PARP2 activity inhibition IC50
Procedure: as §1

[4] = target: T1, PARP7; assay: Inhibition of the compound on PARP7 protein activity (ADP-ribosylation, chemiluminescence); format: biochemical; settings: Histone H1 coated plate, Biotin-Labeled NAD+, 2 h at room temperature, chemiluminescence; read-out: PARP7 activity inhibition IC50
[5] = tested on: NCI-H1373 cells; assay: Inhibition on NCI-H1373 cell proliferation (Cell-Titer-Glo); format: cell-based; settings: Homo sapiens, read-out: NCI-H1373 cell proliferation inhibition IC50
[6] = target: T1, PARP7; assay: PARP7 TR-FRET binding inhibition (displacement of probe RBN011147); settings: TR-FRET, Biotin-labeled probe RBN011147; read-out: PARP7 binding inhibition IC50
Procedure: The ability of the compound to substitute the probe RBN011147 (Wigle et al., 2020, Cell Chemical Biology 27, 877-887) was tested by a TR-FRET method, and IC50 was calculated to evaluate the binding ability of the compound to PARP7. […]

[7] = 144 h, NCI-H1373 cells, incubation for 6 days, Cell-Titer-Glo

PARP1, sequence (P09874 whole entry, species assumed): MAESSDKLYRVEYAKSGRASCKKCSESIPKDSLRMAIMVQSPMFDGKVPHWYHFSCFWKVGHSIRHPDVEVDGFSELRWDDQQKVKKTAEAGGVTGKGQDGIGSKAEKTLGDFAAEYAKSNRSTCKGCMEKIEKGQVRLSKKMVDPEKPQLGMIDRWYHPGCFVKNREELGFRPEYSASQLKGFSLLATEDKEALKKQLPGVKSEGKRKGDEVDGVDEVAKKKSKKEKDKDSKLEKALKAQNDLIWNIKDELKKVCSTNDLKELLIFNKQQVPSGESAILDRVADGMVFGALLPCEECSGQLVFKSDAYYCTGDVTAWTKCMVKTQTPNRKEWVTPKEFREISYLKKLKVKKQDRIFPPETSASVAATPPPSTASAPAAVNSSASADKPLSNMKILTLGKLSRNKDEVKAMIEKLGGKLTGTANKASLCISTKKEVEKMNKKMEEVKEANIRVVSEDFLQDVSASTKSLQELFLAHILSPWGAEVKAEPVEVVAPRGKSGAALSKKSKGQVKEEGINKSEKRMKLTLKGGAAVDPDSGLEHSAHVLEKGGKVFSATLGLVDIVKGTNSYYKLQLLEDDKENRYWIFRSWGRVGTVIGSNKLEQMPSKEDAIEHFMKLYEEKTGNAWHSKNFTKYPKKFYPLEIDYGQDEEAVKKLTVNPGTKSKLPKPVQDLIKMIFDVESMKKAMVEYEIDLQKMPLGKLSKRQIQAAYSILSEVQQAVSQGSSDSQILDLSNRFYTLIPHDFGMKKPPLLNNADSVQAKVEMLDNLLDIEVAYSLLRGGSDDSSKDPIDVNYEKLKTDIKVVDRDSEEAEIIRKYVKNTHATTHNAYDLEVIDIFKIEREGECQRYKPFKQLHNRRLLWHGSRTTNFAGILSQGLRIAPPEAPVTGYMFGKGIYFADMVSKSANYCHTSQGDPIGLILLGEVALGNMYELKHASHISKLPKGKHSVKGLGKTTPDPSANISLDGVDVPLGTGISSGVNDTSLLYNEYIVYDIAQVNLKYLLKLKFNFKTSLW
PARP2, sequence (Q9UGN5 whole entry, species assumed): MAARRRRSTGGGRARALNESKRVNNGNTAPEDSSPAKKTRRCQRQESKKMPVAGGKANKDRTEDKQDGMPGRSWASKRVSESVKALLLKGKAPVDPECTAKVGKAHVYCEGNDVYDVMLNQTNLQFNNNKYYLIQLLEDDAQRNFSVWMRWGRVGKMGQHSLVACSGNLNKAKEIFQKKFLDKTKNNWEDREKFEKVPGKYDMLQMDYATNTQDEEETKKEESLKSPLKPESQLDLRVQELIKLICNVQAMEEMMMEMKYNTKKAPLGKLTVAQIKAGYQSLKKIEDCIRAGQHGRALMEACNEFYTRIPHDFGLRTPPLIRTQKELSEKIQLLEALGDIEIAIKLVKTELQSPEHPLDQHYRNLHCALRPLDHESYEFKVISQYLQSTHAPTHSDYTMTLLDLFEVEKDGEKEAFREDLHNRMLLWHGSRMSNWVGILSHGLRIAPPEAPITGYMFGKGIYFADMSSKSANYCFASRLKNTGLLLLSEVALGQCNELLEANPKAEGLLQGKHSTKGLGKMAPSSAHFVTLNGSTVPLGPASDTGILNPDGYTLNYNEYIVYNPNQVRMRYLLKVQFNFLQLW

Row | Compound | IC50 [1] | IC50 [2] | IC50 [3] | IC50 [4] | IC50 [5, 7] | IC50 [6] | IC50 ([5]; NCI-H1373, 144 h)
1 | O=C(NCCCC(Nc1cn[nH]c(=O)c1C(F)(F)F)C(=O)NC1CCCOC1)c1ccc(-c2ncc(C(F)(F)F)s2)cc1 (stereo not drawn) [Example 235] | 0.003 to 0.01 µM | < 0.003 µM | 0.003 to 0.01 µM | < 0.003 µM | 0.3 to 1 µM | < 0.01 µM | 
2 | O=C(NCCc1n[nH]c(=O)c(C(F)(F)F)c1N1CC2(CCC2)C1)c1cnc(-c2ncc(C(F)(F)F)cn2)cn1 [Example 166] | > 0.1 µM | 0.003 to 0.01 µM | > 0.1 µM | 0.003 to 0.01 µM | > 3 µM | > 0.1 µM | 
3 | CC(CCCNC(=O)c1ccc(-c2ncc(C(F)(F)F)s2)cc1)Nc1cn[nH]c(=O)c1C(F)(F)F (stereo not drawn) [Example 17] | 0.01 to 0.03 µM | < 0.003 µM | < 0.003 µM | < 0.003 µM | < 0.3 µM | < 0.01 µM | 
4 | Cc1c(CCC(=O)Nc2ccc(-c3ncc(C(F)(F)F)cn3)cc2)c[nH]c(=O)c1C(F)(F)F [Example 10] | 0.003 to 0.01 µM | < 0.003 µM | 0.003 to 0.01 µM | < 0.003 µM | 1 to 3 µM | < 0.01 µM | 
5 | CC1(C)CN(C(=O)C(CCCNC(=O)c2ccc(-c3ncc(C(F)(F)F)s3)cc2)Nc2cn[nH]c(=O)c2C(F)(F)F)C1 (stereo not drawn) [Example 85] | 0.03 to 0.1 µM | < 0.003 µM | 0.003 to 0.01 µM | < 0.003 µM | 0.3 to 1 µM | < 0.01 µM | 
6 | CO[C@H]1CCN(C(=O)[C@@H](CCCNC(=O)c2ccc(-c3ncc(C(F)(F)F)s3)cc2)Nc2cn[nH]c(=O)c2C(F)(F)F)C1 [Example 237] | 0.01 to 0.03 µM | < 0.003 µM | 0.003 to 0.01 µM | < 0.003 µM | 0.3 to 1 µM | < 0.01 µM | 
7 | CC1(C)CN(C(=O)C(CCCNC(=O)c2cnc(-c3ncc(C(F)(F)F)cn3)cn2)Nc2cn[nH]c(=O)c2C(F)(F)F)C1 (stereo not drawn) [Example 174] | 0.03 to 0.1 µM | 0.003 to 0.01 µM | 0.003 to 0.01 µM | 0.003 to 0.01 µM | > 3 µM | 0.01 to 0.03 µM | 
8 | CC(CCCNC(=O)c1cnc(-c2ncc(C(F)(F)F)cn2)cn1)Nc1cn[nH]c(=O)c1C(F)(F)F (stereo not drawn) [Example 4] | 0.03 to 0.1 µM | < 0.003 µM | 0.003 to 0.01 µM | < 0.003 µM | 0.3 to 1 µM | < 0.01 µM | 
9 | C[C@H]1CCN(C(=O)[C@@H](CCCNC(=O)c2ccc(-c3ncc(C(F)(F)F)s3)cc2)Nc2cn[nH]c(=O)c2C(F)(F)F)C1 [Example 232] | 0.003 to 0.01 µM | < 0.003 µM | 0.003 to 0.01 µM | < 0.003 µM | 0.3 to 1 µM | 0.01 to 0.03 µM | 
10 | O=C(NCCC[C@@H](Nc1cn[nH]c(=O)c1C(F)(F)F)C(=O)NC1CCC1)c1ccc(-c2ncc(C(F)(F)F)s2)cc1 [Example 228] | > 0.1 µM | 0.003 to 0.01 µM | 0.003 to 0.01 µM | 0.003 to 0.01 µM | < 0.3 µM | < 0.01 µM | 
11 | CNC(=O)[C@@H](CCCNC(=O)c1ccc(-c2ncc(C(F)(F)F)s2)cc1)Nc1cn[nH]c(=O)c1C(F)(F)F [Example 229] | 0.03 to 0.1 µM | < 0.003 µM | 0.01 to 0.03 µM | < 0.003 µM | < 0.3 µM | 0.01 to 0.03 µM | 
12 | O=C(NCCC[C@@H](Nc1cn[nH]c(=O)c1C(F)(F)F)C(=O)N1CC[C@H](F)C1)c1ccc(-c2ncc(C(F)(F)F)s2)cc1 [Example 241] | 0.01 to 0.03 µM | < 0.003 µM | 0.003 to 0.01 µM | < 0.003 µM | 1 to 3 µM | 0.01 to 0.03 µM | 
13 | O=C(NCCCC(Nc1cn[nH]c(=O)c1C(F)(F)F)C(=O)N1CC2(CCC2)C1)c1cnc(-c2ncc(C(F)(F)F)cn2)cn1 (stereo not drawn) [Example 87] | 0.03 to 0.1 µM | < 0.003 µM | 0.01 to 0.03 µM | < 0.003 µM | < 0.3 µM | 0.01 to 0.03 µM | 
14 | O=C(NCCCC(Nc1cn[nH]c(=O)c1C(F)(F)F)C(=O)N1CCCC1)c1ccc(-c2ncc(C(F)(F)F)cn2)cc1 (stereo not drawn) [Example 84] | > 0.1 µM | < 0.003 µM | 0.01 to 0.03 µM | < 0.003 µM | 0.3 to 1 µM | 0.01 to 0.03 µM | 
15 | N#C[C@@H]1CCN(C(=O)[C@@H](CCCNC(=O)c2ccc(-c3ncc(C(F)(F)F)s3)cc2)Nc2cn[nH]c(=O)c2C(F)(F)F)C1 [Example 239] | 0.01 to 0.03 µM | < 0.003 µM | > 0.1 µM | < 0.003 µM | 0.3 to 1 µM | 0.01 to 0.03 µM | 
16 | O=C(NCCC[C@@H](Nc1cn[nH]c(=O)c1C(F)(F)F)C(=O)Nc1ccccn1)c1ccc(-c2ncc(C(F)(F)F)s2)cc1 [Example 244] | 0.003 to 0.01 µM | < 0.003 µM | 0.03 to 0.1 µM | < 0.003 µM | > 3 µM | 0.03 to 0.1 µM | 
17 | CN(C(=O)[C@@H](CCCNC(=O)c1ccc(-c2ncc(C(F)(F)F)s2)cc1)Nc1cn[nH]c(=O)c1C(F)(F)F)C1CCC1 [Example 230] | 0.03 to 0.1 µM | 0.003 to 0.01 µM | 0.003 to 0.01 µM | 0.003 to 0.01 µM | < 0.3 µM | 0.03 to 0.1 µM | 
18 | CC1(C#N)CN(C(=O)[C@@H](CCCNC(=O)c2ccc(-c3ncc(C(F)(F)F)s3)cc2)Nc2cn[nH]c(=O)c2C(F)(F)F)C1 [Example 247] | 0.01 to 0.03 µM | 0.003 to 0.01 µM | 0.03 to 0.1 µM | 0.003 to 0.01 µM | > 3 µM | 0.01 to 0.03 µM | 
19 | O=C(NCCCC(Nc1cn[nH]c(=O)c1C(F)(F)F)C(=O)N1CCCC1)c1cnc(-c2ncc(C(F)(F)F)cn2)cn1 (stereo not drawn) [Example 89] | 0.03 to 0.1 µM | < 0.003 µM | 0.01 to 0.03 µM | < 0.003 µM | 0.3 to 1 µM | < 0.01 µM | 
20 | CC(CCCNC(=O)c1cnc(-c2ncc(C(F)(F)F)cn2)cn1)Nc1cc[nH]c(=O)c1C#N (stereo not drawn) [Example 52] |  |  |  | 0.01 to 0.03 µM | > 3 µM | 0.03 to 0.1 µM | 
21 | CC(CCCNC(=O)c1cnc(-c2ncc(C(F)(F)F)s2)cn1)Nc1cn[nH]c(=O)c1C(F)(F)F (stereo not drawn) [Example 26] |  |  |  | < 0.003 µM | 1 to 3 µM | < 0.01 µM | 
22 | CC#Cc1cnc(-c2ccc(C(=O)NCCCC(C)Nc3cn[nH]c(=O)c3C(F)(F)F)cc2)s1 (stereo not drawn) [Example 42] |  |  |  | < 0.003 µM | > 3 µM | 0.03 to 0.1 µM | 
23 | CC(CCCNC(=O)c1ccc(-c2ncc(N(C)C)s2)cc1)Nc1cn[nH]c(=O)c1C(F)(F)F (stereo not drawn) [Example 57] |  |  |  | 0.003 to 0.01 µM |  | < 0.01 µM | 1 to 3 µM
24 | CC(CCCNC(=O)c1ccc(-n2cccn2)nc1)Nc1cn[nH]c(=O)c1C(F)(F)F (stereo not drawn) [Example 45] |  |  |  | 0.003 to 0.01 µM | > 3 µM | 0.01 to 0.03 µM | 
25 | Cc1cc(=O)n(C)nc1-c1ccc(C(=O)NCCCC(C)Nc2cn[nH]c(=O)c2C(F)(F)F)cc1 (stereo not drawn) [Example 66] |  |  |  | 0.03 to 0.1 µM | > 3 µM | > 0.1 µM | 
26 | CC(CCCNC(=O)c1ncc(-c2ncc(C(F)(F)F)cn2)cc1F)Nc1cn[nH]c(=O)c1C(F)(F)F (stereo not drawn) [Example 73] |  |  |  | < 0.003 µM | 0.3 to 1 µM | < 0.01 µM | 
27 | CC(CCCNC(=O)c1ccc(-c2csc(C(F)(F)F)n2)cc1)Nc1cn[nH]c(=O)c1C(F)(F)F (stereo not drawn) [Example 80] |  |  |  | 0.01 to 0.03 µM | > 3 µM | 0.03 to 0.1 µM | 
28 | CC(CCCNC(=O)c1ccc(-c2ncc(C(F)(F)F)cn2)cc1O)Nc1cn[nH]c(=O)c1C(F)(F)F (stereo not drawn) [Example 1] |  |  |  | < 0.003 µM | 1 to 3 µM | < 0.01 µM | 
29 | CC(CCCNC(=O)c1cnc(-c2ncc(C(F)(F)F)s2)cn1)Nc1cc[nH]c(=O)c1C(F)(F)F (stereo not drawn) [Example 31] |  |  |  | < 0.003 µM | > 3 µM | 0.01 to 0.03 µM | 
30 | CC(CCCNC(=O)c1cnc(-c2ncc(C(F)F)s2)cn1)Nc1cc[nH]c(=O)c1C(F)(F)F (stereo not drawn) [Example 32] |  |  |  | < 0.003 µM | > 3 µM | 0.01 to 0.03 µM | 
